{"source": "paper PMC6934184", "about": "“Selective DNA-PKcs inhibition extends the therapeutic index of localized radiotherapy and chemotherapy” (The Journal of Clinical Investigation, 2019)", "target": "T1, NLK (Homo sapiens, UniProt Q9UBE8)", "T1 construct": "purchased Thermo Fisher Scientific (Life Technologies) SelectScreen", "T1 sequence (Q9UBE8 whole entry)": "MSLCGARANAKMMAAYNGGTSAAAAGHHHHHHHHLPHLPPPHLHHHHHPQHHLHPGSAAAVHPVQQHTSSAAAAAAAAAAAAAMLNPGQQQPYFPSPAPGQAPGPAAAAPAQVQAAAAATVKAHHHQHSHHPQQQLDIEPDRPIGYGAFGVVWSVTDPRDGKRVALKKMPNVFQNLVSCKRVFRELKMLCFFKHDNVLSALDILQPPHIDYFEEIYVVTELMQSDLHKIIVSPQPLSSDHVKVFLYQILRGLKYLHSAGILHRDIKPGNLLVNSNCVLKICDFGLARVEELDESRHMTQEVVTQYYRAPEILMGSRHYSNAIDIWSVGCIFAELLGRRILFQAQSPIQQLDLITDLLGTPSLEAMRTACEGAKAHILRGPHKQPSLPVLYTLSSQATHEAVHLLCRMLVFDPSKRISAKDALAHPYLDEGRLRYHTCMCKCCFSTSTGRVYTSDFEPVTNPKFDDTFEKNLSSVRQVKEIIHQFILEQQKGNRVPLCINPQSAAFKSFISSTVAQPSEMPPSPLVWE", "test": "SelectScreen LanthaScreen", "assay_type": "binding", "settings": "read-out: % displacement", "procedure,_shortened": "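Percent values come from Thermo SelectScreen profiling of NU5455, combining activity and binding assays. CSF1R was run in Z'LYTE format at Km app ATP, and CAMK1 in Adapta format with ATP listed at 10.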"}
{"smiles": "CN(C(=O)CN1CCOCC1)c1ccc2sc3c(-c4cccc5c(=O)cc(N6CC7CCC(C6)O7)oc45)cccc3c2c1", "note": "[NU5455]", "values": [{"measurement": "inhibition at 1 µM", "value": 4.7, "unit": "%"}]}
